Measured values taken from ChEMBL document CHEMBL3885881, “DrugMatrix”.

Species on record: Rattus norvegicus
Experiment: DrugMatrix - Regimen: Daily Repeat
Assay type: toxicity, organism-based, Sprague-Dawley
Parameters: regimen Daily Repeat, gender Male, age 6-8 weeks
Conditions: in vivo, po, 4 mg/kg, route oral GAVAGE, dose level Low, vehicle 100 % WATER; for ABSOLUTE BASOPHIL / ABSOLUTE EOSINOPHIL / ABSOLUTE LYMPHOCYTE / ABSOLUTE MONOCYTE / ABSOLUTE SEGMENTED NEUTROPHIL / BASOPHIL / EOSINOPHIL / ERYTHROCYTE COUNT / HEMATOCRIT / HEMOGLOBIN / LEUKOCYTE COUNT / LYMPHOCYTE / MEAN CORPUSCULAR HEMOGLOBIN / MEAN CORPUSCULAR HEMOGLOBIN CONCENTRATION / MEAN CORPUSCULAR VOLUME / MONOCYTE / NEUTROPHIL / NUCLEATED RED BLOOD CELLS / PLATELET COUNT: tissue Blood; for ALANINE AMINOTRANSFERASE / ALBUMIN / ALKALINE PHOSPHATASE / ASPARTATE AMINOTRANSFERASE / BLOOD UREA NITROGEN / CARBON DIOXIDE / CHLORIDE / CHOLESTEROL / CREATINE PHOSPHOKINASE / CREATININE / GLUCOSE / LACTATE DEHYDROGENASE / LIPASE / PHOSPHORUS / POTASSIUM / SODIUM / TOTAL BILIRUBIN / TOTAL PROTEIN / URIC ACID: tissue Plasma

COc1ccnc(C[S+]([O-])c2nc3ccc(OC(F)F)cc3[nH]2)c1OC (stereo unspecified) [PANTOPRAZOLE]
ABSOLUTE BASOPHIL (72 h, time 3 day): 0 CELLS/uL | ABSOLUTE EOSINOPHIL (72 h, time 3 day): 0 CELLS/uL | ABSOLUTE LYMPHOCYTE (72 h, time 3 day): 12700.33 CELLS/uL | ABSOLUTE MONOCYTE (72 h, time 3 day): 129 CELLS/uL | ABSOLUTE SEGMENTED NEUTROPHIL (72 h, time 3 day): 970.67 CELLS/uL | BASOPHIL (72 h, time 3 day): 0% | EOSINOPHIL (72 h, time 3 day): 0% | ERYTHROCYTE COUNT (72 h, time 3 day): 5.41 x10E6/uL | HEMATOCRIT (72 h, time 3 day): 34.33% | HEMOGLOBIN (72 h, time 3 day): 13.7 G/DL | LEUKOCYTE COUNT (72 h, time 3 day): 13.8 x10E3/uL | LYMPHOCYTE (72 h, time 3 day): 91.33% | MEAN CORPUSCULAR HEMOGLOBIN (72 h, time 3 day): 25.37 pg | MEAN CORPUSCULAR HEMOGLOBIN CONCENTRATION (72 h, time 3 day): 39.93 G/DL | MEAN CORPUSCULAR VOLUME (72 h, time 3 day): 63.43 fL | MONOCYTE (72 h, time 3 day): 1% | NEUTROPHIL (72 h, time 3 day): 7.67% | NUCLEATED RED BLOOD CELLS (72 h, time 3 day): 0.67 /100WBC | PLATELET COUNT (72 h, time 3 day): 1322.33 x10E3/uL | ALANINE AMINOTRANSFERASE (72 h, time 3 day): 47 u/L | ALBUMIN (72 h, time 3 day): 4.07 G/DL | ALKALINE PHOSPHATASE (72 h, time 3 day): 370.67 u/L | ASPARTATE AMINOTRANSFERASE (72 h, time 3 day): 94 u/L | BLOOD UREA NITROGEN (72 h, time 3 day): 15.67 mg/dL | CARBON DIOXIDE (72 h, time 3 day): 25.67 mmol/L | CHLORIDE (72 h, time 3 day): 102.67 MEQ/L | CHOLESTEROL (72 h, time 3 day): 70.33 mg/dL | CREATINE PHOSPHOKINASE (72 h, time 3 day): 679.33 u/L | CREATININE (72 h, time 3 day): 0.14 mg/dL | GLUCOSE (72 h, time 3 day): 153.67 mg/dL | LACTATE DEHYDROGENASE (72 h, time 3 day): 404.33 u/L | LIPASE (72 h, time 3 day): 9 u/L | PHOSPHORUS (72 h, time 3 day): 13.8 mg/dL | POTASSIUM (72 h, time 3 day): 7.04 MEQ/L | SODIUM (72 h, time 3 day): 146.43 MEQ/L | TOTAL BILIRUBIN (72 h, time 3 day): 0.23 mg/dL | TOTAL PROTEIN (72 h, time 3 day): 5.67 G/DL | URIC ACID (72 h, time 3 day): 1.7 mg/dL | ABSOLUTE BASOPHIL (120 h, time 5 day): 0 CELLS/uL | ABSOLUTE EOSINOPHIL (120 h, time 5 day): 43.33 CELLS/uL | ABSOLUTE LYMPHOCYTE (120 h, time 5 day): 13938.33 CELLS/uL | ABSOLUTE MONOCYTE (120 h, time 5 day): 59 CELLS/uL | ABSOLUTE SEGMENTED NEUTROPHIL (120 h, time 5 day): 859.33 CELLS/uL | BASOPHIL (120 h, time 5 day): 0% | EOSINOPHIL (120 h, time 5 day): 0.33% | ERYTHROCYTE COUNT (120 h, time 5 day): 5.27 x10E6/uL | HEMATOCRIT (120 h, time 5 day): 34.2% | HEMOGLOBIN (120 h, time 5 day): 13.7 G/DL | LEUKOCYTE COUNT (120 h, time 5 day): 14.9 x10E3/uL | LYMPHOCYTE (120 h, time 5 day): 93.33% | MEAN CORPUSCULAR HEMOGLOBIN (120 h, time 5 day): 26.07 pg | MEAN CORPUSCULAR HEMOGLOBIN CONCENTRATION (120 h, time 5 day): 40.07 G/DL | MEAN CORPUSCULAR VOLUME (120 h, time 5 day): 65.03 fL | MONOCYTE (120 h, time 5 day): 0.33% | NEUTROPHIL (120 h, time 5 day): 6% | NUCLEATED RED BLOOD CELLS (120 h, time 5 day): 0.33 /100WBC | PLATELET COUNT (120 h, time 5 day): 1411.33 x10E3/uL | ALANINE AMINOTRANSFERASE (120 h, time 5 day): 54.67 u/L | ALBUMIN (120 h, time 5 day): 4.17 G/DL | ALKALINE PHOSPHATASE (120 h, time 5 day): 396 u/L | ASPARTATE AMINOTRANSFERASE (120 h, time 5 day): 114.33 u/L | BLOOD UREA NITROGEN (120 h, time 5 day): 17.67 mg/dL | CARBON DIOXIDE (120 h, time 5 day): 26 mmol/L | CHLORIDE (120 h, time 5 day): 102 MEQ/L | CHOLESTEROL (120 h, time 5 day): 60.67 mg/dL | CREATINE PHOSPHOKINASE (120 h, time 5 day): 690.67 u/L | CREATININE (120 h, time 5 day): 0.13 mg/dL | GLUCOSE (120 h, time 5 day): 144 mg/dL | LACTATE DEHYDROGENASE (120 h, time 5 day): 666.67 u/L | LIPASE (120 h, time 5 day): 9 u/L | PHOSPHORUS (120 h, time 5 day): 14.27 mg/dL | POTASSIUM (120 h, time 5 day): 6.77 MEQ/L | SODIUM (120 h, time 5 day): 143.77 MEQ/L | TOTAL BILIRUBIN (120 h, time 5 day): 0.2 mg/dL | TOTAL PROTEIN (120 h, time 5 day): 5.8 G/DL | URIC ACID (120 h, time 5 day): 1.57 mg/dL
